According to PubChem BioAssay AID2305 (GlaxoSmithKline (GSK), 2010):
Values joined by “and” are separate entries in the source; they are usually repeats but may differ in a detail not shown here. Equal entries are not always repeated.

Each molecule was assayed on P. falciparum 3D7 growth, pLDH absorbance (assay: P. falciparum 3D7 growth inhibition, dose response, strain 3D7 (AID 2305)).

Q: `Cc1ccc(S(=O)(=O)c2nc(S(=O)(=O)c3ccccc3)sc2NCC2CCCO2)cc1` (configuration not stated) was tested. Which IC50 did it give?
A: Its IC50 is 1020 nM.

Q: `COc1cc2cc(Cc3cnc(N)nc3N)ccc2c(OC)c1OC` was tested. Which IC50 did it give?
A: The IC50 was 240 nM.

Q: Which IC50 does the source give for `COc1ccc(CNC(=O)c2cnc3c(O)cccc3c2Nc2cccc(NC(=O)c3ccc(Cl)c(Cl)c3)c2)cc1` here?
A: Its IC50 is 600 nM.

Q: `CCCC(C)NC(=O)[C@H](CC1CCCCC1)NC(=O)c1ccc(O)c(-c2cccc(C(F)(F)F)c2)c1` (some centres not stated) was tested. Which IC50 did it give?
A: The IC50 was 530 nM.

Q: With `O=C(Nc1cccc(CN2CCN(C(=O)c3cccc(Cl)c3)CC2)c1)c1cccs1` as the molecule, how does the IC50 read?
A: Its IC50 is 180 nM.

Q: Which IC50 does the source give for `Cn1c(O)c(N=NC(=S)N2CCOCC2)c2ccccc21` here?
A: Its IC50 is 900 nM.

Q: How did the IC50 turn out when `c1ccc(CNc2nc(NCCN3CCCCC3)nc3ccccc23)cc1` was run?
A: The IC50 was 1020 nM.

Q: For `O=C(C=C1c2ccccc2-c2ccccc21)NC1CCC(CN2CCC(c3c[nH]c4ccccc34)CC2)CC1` (configuration not stated), which IC50 is on record?
A: The IC50 was 790 nM and 700 nM.

Q: For `CN(C)CCCSc1ccccc1NC(=O)C=Cc1ccccc1`, which IC50 is on record?
A: The IC50 was 960 nM.

Q: For `Cc1cccc(C(=O)N2CCN(Cc3cccc(NC(=O)c4ccco4)c3)CC2)c1`, which IC50 is on record?
A: Its IC50 is 760 nM.

Q: How did the IC50 turn out when `COc1cc(OC)c(NC(=O)COc2ccc(C)cc2)cc1Cl` was run?
A: The IC50 was 690 nM.

Q: Which IC50 does the source give for `CN(C)CCCN1CCN(Cc2ccc(-c3ccc(-c4nc5ccccc5[nH]4)s3)cc2)CC1` here?
A: The IC50 was 820 nM.

Q: For `COc1cccc(C(=O)NC(NC(=S)Nc2ccc(OC)cc2[N+](=O)[O-])C(Cl)(Cl)Cl)c1` (configuration not stated), which IC50 is on record?
A: Its IC50 is 760 nM.

Q: With `COc1ccc(OCC(O)CN(Cc2ccccc2OC)C(=O)Nc2ccc(Br)cc2)cc1` (configuration not stated) as the molecule, how does the IC50 read?
A: Its IC50 is 750 nM.

Q: Which IC50 does the source give for `Nc1cccc(CNCc2cccc(-c3csc(-c4nc5ccccc5[nH]4)c3)c2)c1` here?
A: Its IC50 is 680 nM.

Q: Which IC50 does the source give for `Cc1cccc(C(=O)Nc2ccnc(N(C)C3CCN(Cc4cccc(O)c4)CC3)c2)c1` here?
A: The IC50 was 940 nM.

Q: For `c1ccc(COc2ccc(Cn3ccc(-c4ccc(-n5ccnc5)cc4)n3)cc2)cc1` (tested in a mixture with another compound), which IC50 is on record?
A: Its IC50 is 1020 nM.

Q: How did the IC50 turn out when `Clc1ccc(CNc2nc(NCCc3cnc[nH]3)nc(Nc3ccc4c(c3)OCO4)n2)cc1` was run?
A: Its IC50 is 950 nM.

Q: `O=c1cc(-c2ccc3ccccc3c2)[nH]c2ccccc12` was tested. Which IC50 did it give?
A: The IC50 was 1160 nM.

Q: How did the IC50 turn out when `CC(=O)N[C@H](C(=O)Nc1ccc(-c2ccc(-c3nc4ccc(C(F)(F)F)cc4[nH]3)cc2)cc1)C(C)C` was run?
A: Its IC50 is 890 nM.

Q: For `CC(C)NC[C@@H](O)[C@H](Cc1ccccc1)NC(=O)c1cc2c3c(c1)c(C(C)C)cn3CCS(=O)(=O)N2C`, which IC50 is on record?
A: The IC50 was 180 nM.

Q: Which IC50 does the source give for `O=C(/C=C/c1ccc(Cl)c(Cl)c1)NCCCCCN1CCC(NC(=O)Nc2cccc(Cl)c2Cl)CC1` here?
A: Its IC50 is 670 nM.

Q: `O=C(Nc1nc(-c2cc(F)ccc2F)cs1)c1cncc(Br)c1` was tested. Which IC50 did it give?
A: Its IC50 is 1080 nM.

Q: How did the IC50 turn out when `O=C(NCCCCCN1CCCN(C(=O)Nc2ccc(Cl)c(C(F)(F)F)c2)CC1)[C@@H]1C[C@H]1c1ccc(Cl)c(Cl)c1` was run?
A: Its IC50 is 850 nM.

Q: For `CS(=O)(=O)c1ccc(Nc2ncc(-c3ccc(S(C)(=O)=O)cc3)c(OCC(F)(F)F)n2)cc1`, which IC50 is on record?
A: Its IC50 is 400 nM.

Q: Which IC50 does the source give for `COc1ccc(-c2ccc(NC(=O)c3ccc(C#N)cc3)c(F)c2)cc1CN(C)CCN(C)C` here?
A: The IC50 was 970 nM.

Q: How did the IC50 turn out when `Cn1ccc(C(=O)Nc2ccc3c(c2)CN(Cc2ccc(N4CCCC4)o2)CCC3)n1` was run?
A: The IC50 was 1310 nM.

Q: Which IC50 does the source give for `COc1ccc(C2C(C(=O)Nc3ccc(C)cc3Br)c3ccccc3C(=O)N2C)cc1` (configuration not stated) here?
A: The IC50 was 940 nM.

Q: For `CN(c1ccc(C(=O)N[C@@H](CCC(=O)O)C(=O)O)cc1)S(=O)(=O)c1ccc2nc(N)[nH]c(=O)c2c1`, which IC50 is on record?
A: The IC50 was 150 nM.

Q: How did the IC50 turn out when `CCCCCCCOc1ccc(NC(=O)Nc2ccc(Cn3ncc(N4CCCNCC4)c(Cl)c3=O)cc2)cc1` was run?
A: Its IC50 is 920 nM.

Q: With `COc1ccc(-c2ccc(CNC(=O)c3ccc(C#N)cc3)c(F)c2)cc1CN1CCCN(C)CC1` as the molecule, how does the IC50 read?
A: Its IC50 is 1140 nM.

Q: For `CC(C)(C)OC(=O)c1c(NC(=O)/C=C/c2ccc(O)c(O)c2)sc2c1CCCC2`, which IC50 is on record?
A: Its IC50 is 820 nM.

Q: How did the IC50 turn out when `Cc1ccc(S(=O)(=O)NC2CCN(c3ccnc4cc(Cl)ccc34)C2)cc1` (configuration not stated) was run?
A: The IC50 was 620 nM.

Q: For `O=C(Cc1cc(=O)oc2cc(O)ccc12)N1CCC(CN2CCC(c3c[nH]c4ccccc34)CC2)CC1`, which IC50 is on record?
A: Its IC50 is 870 nM.

Q: Which IC50 does the source give for `CC(=O)Nc1ncc(C(=O)Nc2ccc(-c3cccc(-c4nc5ccc(F)cc5[nH]4)c3)cc2)s1` here?
A: The IC50 was 350 nM.

Q: Which IC50 does the source give for `CC(C)c1ccc(NC(=O)c2ccc(C(=O)NC3CCN(CC4CCCCC4)CC3)cc2)cc1` here?
A: The IC50 was 650 nM.

Q: Which IC50 does the source give for `CCNc1cc(C(=O)N[C@@H](Cc2ccccc2)[C@H](O)CNC(C)CC(C)C)c(F)c(N2CCCCS2(=O)=O)c1` (some centres not stated) here?
A: The IC50 was 1120 nM.

Q: Which IC50 does the source give for `COc1ccccc1-c1[nH]c2ccccc2c1CN1CCC(c2c(C)cccc2C)CC1` here?
A: Its IC50 is 920 nM.

Q: Which IC50 does the source give for `O=C(Nc1cccc(CN2CCCN(Cc3cccc(O)c3)CC2)c1)c1ccc2ccccc2c1` here?
A: The IC50 was 790 nM.

Q: `Cc1cccc2[nH]c(-c3ccc(-c4ccc(CN5CC(C)OC(C)C5)cc4)cc3)nc12` (configuration not stated) was tested. Which IC50 did it give?
A: The IC50 was 520 nM.

Q: For `Cc1ccc(-n2[nH]c(C)c(N=Nc3cccc(-c4cccc(NC(=O)OC(C)(C)C)c4)c3O)c2=O)cc1C`, which IC50 is on record?
A: Its IC50 is 700 nM.

Q: With `CC(=O)Nc1ccc(C(=O)Nc2cccc(-c3cccc(-c4nc5ccc(C(F)(F)F)cc5[nH]4)c3)c2)cn1` as the molecule, how does the IC50 read?
A: Its IC50 is 70 nM.

Q: `CCc1nc2c(cnn2CC)c(NC2CCOCC2)c1CNC(=O)c1ccoc1C` was tested. Which IC50 did it give?
A: Its IC50 is 890 nM.

Q: How did the IC50 turn out when `O=C(O)c1ccc2nc(-c3ccccn3)c(-c3ccccn3)nc2c1` was run?
A: Its IC50 is 220 nM.

Q: `Cc1c(OC(C)C)nc2ccccc2c1C(=O)N[C@H](c1cccc(F)c1)C1CC1` was tested. Which IC50 did it give?
A: Its IC50 is 1090 nM.

Q: Which IC50 does the source give for `CN1CCC[C@H]1COc1ccc(CN2CC[C@H](NC(=O)c3ccc(Cl)c(Cl)c3)C2)cc1Br` here?
A: Its IC50 is 980 nM.

Q: `O=C(NCCCCCN1CCC(c2c[nH]c3ccccc23)CC1)Nc1cccc(C(F)(F)F)c1` was tested. Which IC50 did it give?
A: Its IC50 is 1000 nM.

Q: `CCCN(Cc1nnc(-c2ccco2)o1)C(=O)C1CCN(c2ncc(C(F)(F)F)cc2Cl)CC1` was tested. Which IC50 did it give?
A: Its IC50 is 690 nM.

Q: How did the IC50 turn out when `O=C(Cn1c(CCc2cccc(F)c2F)nc(=O)c2cccnc21)N(Cc1ccc(-c2ccc(C(F)(F)F)cc2)cc1)C1CCN(C2CCSCC2)CC1` was run?
A: The IC50 was 230 nM.

Q: `COc1ccc(C(C(=O)NC2CCN(C[C@H](O)c3ccnc4ccc(OC)cc34)CC2)N2CCN(c3ccc([N+](=O)[O-])cc3)CC2)cc1` (some centres not stated) was tested. Which IC50 did it give?
A: Its IC50 is 230 nM.

Q: How did the IC50 turn out when `CC[C@H]1CN2CC[C@H]1C[C@H]2[C@H](O)c1ccnc2ccc(O)cc12` was run?
A: The IC50 was 640 nM.

Q: Which IC50 does the source give for `CCN(CC)CCN(Cc1ccc(-c2ccc(C(F)(F)F)cc2)cc1)C(=O)c1c[nH]c2ccc(Br)cc12` here?
A: The IC50 was 950 nM.

Q: Which IC50 does the source give for `CC(CCc1ccccc1)NCC(O)c1cccc(C(F)(F)F)c1` (configuration not stated) here?
A: The IC50 was 710 nM.

Q: Which IC50 does the source give for `Cc1cc(NC(=O)c2sc3ccccc3c2O)no1` here?
A: Its IC50 is 810 nM.

Q: `COc1ccc(C(=O)CCC(=O)N(Cc2ccc(-c3ccc(CNCCc4ccc(S(C)(=O)=O)cc4)cn3)cc2)C(C)CN(C)C)cc1F` (configuration not stated) was tested. Which IC50 did it give?
A: The IC50 was 650 nM.

Q: With `Cc1ccoc1C(=O)Nc1cccc(-c2cccc(-c3nc4c(C)cccc4[nH]3)c2)c1` as the molecule, how does the IC50 read?
A: The IC50 was 670 nM.

Q: For `CC1=C(C(=O)Nc2ccc(Cl)cc2)C(c2ccncc2)n2nc(C(F)(F)F)nc2N1` (configuration not stated), which IC50 is on record?
A: Its IC50 is 930 nM.

Q: Which IC50 does the source give for `Cn1cnc2nc(NCCc3ccccc3)nc(NCc3cccc4ccccc34)c21` here?
A: Its IC50 is 330 nM.

Q: How did the IC50 turn out when `CCCc1ccc(-c2csc(NC(=O)c3ccc([N+](=O)[O-])o3)n2)cc1` was run?
A: The IC50 was 1210 nM.

Q: `CC(C)c1nc(N2CCN(C(=S)NCc3ccccc3)CC2)c(C#N)c2c1COC(C)(C)C2` was tested. Which IC50 did it give?
A: Its IC50 is 140 nM.

Q: With `Cc1ccc2nc3c(cc(C(=O)NCc4ccccc4)c(=N)n3CCCn3ccnc3)c(=O)n2c1` as the molecule, how does the IC50 read?
A: Its IC50 is 990 nM.

Q: How did the IC50 turn out when `COc1cccc(C(O)CNc2ccnc(Nc3ccc(Cl)cc3)n2)c1` (configuration not stated) was run?
A: Its IC50 is 610 nM.

Q: How did the IC50 turn out when `COC(=O)/C=C/c1ccc(CC(C)NCC(O)c2cccc(Br)c2)cc1` (configuration not stated) was run?
A: Its IC50 is 720 nM.

Q: Which IC50 does the source give for `OC1CCN(c2cc(-c3ccccn3)nc(-c3ccccn3)n2)CC1` here?
A: The IC50 was 1050 nM.

Q: `CC(C)N(Cc1ccc(-c2ccc(C(F)(F)F)cc2)cc1)C(=O)Cn1c(SCc2cccc(F)c2F)cc(=O)c2cc(CN3CCCCC3)ccc21` was tested. Which IC50 did it give?
A: Its IC50 is 870 nM.

Q: `COc1cc2ccccc2cc1CNCCCCCCNCc1cc2ccccc2cc1OC` was tested. Which IC50 did it give?
A: The IC50 was 720 nM.

Q: With `Cc1cc(N[C@@H](Cc2ccccc2)C(=O)NCCc2ccccc2)nc(NCc2ccccc2C)n1` as the molecule, how does the IC50 read?
A: The IC50 was 880 nM.
